Data from ChEMBL document CHEMBL4418264, “2,4,5-trisubstituted thiazole compounds,preparation methods,pharmaceutical compositions and medical uses thereof” (2014).

Columns and labels:
[1] = biological target: Phospholipid transfer protein (Homo sapiens) (UniProt P55058); assay: Inhibition of PLTP in plasma (unknown origin) assessed as reduction in phospholipid transfer from phospholipid liposome to HDL at 150 uM measured after 1 hr relative to control; type: cell-free
[2] = biological target: T1, Cholesteryl ester transfer protein (Homo sapiens) (UniProt P11597); assay: Inhibition of CETP (unknown origin) at 500 uM incubated for 0.5 hrs by double illuminometer/fluorescence counter method relative to control
T1 sequence (whole entry): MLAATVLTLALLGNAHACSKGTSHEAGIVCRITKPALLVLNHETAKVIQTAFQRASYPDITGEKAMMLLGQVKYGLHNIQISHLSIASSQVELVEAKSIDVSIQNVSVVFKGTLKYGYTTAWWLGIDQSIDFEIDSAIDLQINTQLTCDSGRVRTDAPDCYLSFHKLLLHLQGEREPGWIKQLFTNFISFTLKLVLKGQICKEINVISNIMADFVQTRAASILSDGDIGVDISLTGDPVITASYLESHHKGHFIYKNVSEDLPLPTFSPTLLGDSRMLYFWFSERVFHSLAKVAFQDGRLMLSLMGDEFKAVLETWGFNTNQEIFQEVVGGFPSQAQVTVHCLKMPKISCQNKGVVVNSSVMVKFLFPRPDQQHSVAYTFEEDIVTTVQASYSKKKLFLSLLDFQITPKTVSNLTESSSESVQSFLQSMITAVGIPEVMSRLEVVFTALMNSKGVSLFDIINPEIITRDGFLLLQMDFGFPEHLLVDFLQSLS

[3] = biological target: Phospholipid transfer protein (Homo sapiens) (UniProt P55058); assay: Inhibition of PLTP in plasma (unknown origin) assessed as reduction in phospholipid transfer from phospholipid liposome to HDL at 500 uM measured after 1 hr relative to control; type: cell-free
[4] = biological target: Phospholipid transfer protein (Homo sapiens) (UniProt P55058); assay: Inhibition of PLTP in plasma (unknown origin) assessed as reduction in phospholipid transfer from phospholipid liposome to HDL at 250 uM measured after 1 hr relative to control; type: cell-free

Chain of Phospholipid transfer protein (Homo sapiens) (P55058 whole entry): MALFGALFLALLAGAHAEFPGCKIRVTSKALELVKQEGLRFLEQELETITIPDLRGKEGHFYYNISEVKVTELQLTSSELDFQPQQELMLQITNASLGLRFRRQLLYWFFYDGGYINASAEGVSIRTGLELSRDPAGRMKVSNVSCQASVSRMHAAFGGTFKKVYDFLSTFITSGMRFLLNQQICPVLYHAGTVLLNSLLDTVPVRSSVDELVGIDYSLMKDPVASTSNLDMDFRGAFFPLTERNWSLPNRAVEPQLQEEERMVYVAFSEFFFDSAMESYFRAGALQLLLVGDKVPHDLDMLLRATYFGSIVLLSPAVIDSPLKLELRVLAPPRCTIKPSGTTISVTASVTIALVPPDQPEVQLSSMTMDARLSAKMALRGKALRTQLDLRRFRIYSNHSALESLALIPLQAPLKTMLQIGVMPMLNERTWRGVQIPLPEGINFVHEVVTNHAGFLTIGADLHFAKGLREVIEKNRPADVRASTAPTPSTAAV

inhibition [1] [%]	inhibition [2] [%]	inhibition [3] [%]	inhibition [4] [%]	SMILES
0	80.4			O=C(Nc1nc(-c2ccc(O)cc2)c(Cc2ccccc2)s1)c1ccc(Cl)cc1
	74.5	100		COc1ccc(-c2nc(N3CCNCC3)sc2Cc2ccccc2)cc1
	20.9		100	O=C(Nc1nc(-c2ccc(O)cc2)c(CC2CCCCC2)s1)c1cc(O)c(O)c(O)c1
	0		100	O=C(Nc1nc(-c2ccccc2)c(Cc2ccc([N+](=O)[O-])cc2)s1)c1ccc(O)c(O)c1
	30.4		67.6	O=C(Nc1nc(-c2ccc(O)cc2)c(Cc2ccc([N+](=O)[O-])cc2)s1)c1ccc(O)c(O)c1
81.6	6			O=C(Nc1nc(-c2ccc(O)cc2)c(CC2CCCCC2)s1)c1ccc(O)c(O)c1
	58.7		71.9	Cc1sc(NC(=O)c2ccc(O)c(O)c2)nc1-c1ccc(O)cc1
	75.8		24	COc1ccc(-c2nc(N)sc2CCc2ccccc2)cc1
	0		97	O=C(Nc1nc(-c2ccc(O)cc2)c(CCc2ccccc2)s1)c1ccc(O)c(O)c1
	9.2		73.2	O=C(Nc1nc(-c2ccc(O)cc2)c(Cc2ccc(F)cc2)s1)c1ccc(O)c(O)c1
75.7	25.3			O=C(CCc1ccc(O)c(O)c1)Nc1nc(-c2ccc(O)cc2)c(Cc2ccccc2)s1
	65.4		15.3	CCCCc1sc(N)nc1-c1ccc(OC)cc1
	19.4		79.8	O=C(Nc1nc(-c2ccc(O)cc2)c(Cc2ccccc2)s1)c1ccc(O)c(O)c1
	52.8		11.5	COc1ccc(-c2nc(N)sc2Cc2ccc(F)cc2)cc1
89.4	44.1			O=C(Nc1nc(-c2ccc(O)cc2)c(Cc2ccccc2)s1)c1cc(O)c(O)c(O)c1
	27.3		100	CCCCc1sc(NC(=O)c2cc(O)c(O)c(O)c2)nc1-c1ccc(O)cc1
11.5	88			O=C(Nc1nc(-c2ccc(O)cc2)c(Cc2ccccc2)s1)c1ccc(O)cc1O
	0		93.4	CCCCc1sc(NC(=O)c2ccc(O)c(O)c2)nc1-c1ccc(O)cc1
	91.6	61		COc1ccc(-c2nc(N3CCOCC3)sc2Cc2ccccc2)cc1
0	79.8			COc1ccc(-c2nc(N)sc2CC2CCCCC2)cc1
0	71.6			COc1ccc(C(=O)Nc2nc(-c3ccc(O)cc3)c(Cc3ccccc3)s2)cc1
	0		100	O=C(Nc1nc(-c2ccc(F)cc2)c(Cc2ccc([N+](=O)[O-])cc2)s1)c1ccc(O)c(O)c1
	85.9		10.7	Cc1sc(NC(=O)c2cc(O)c(O)c(O)c2)nc1-c1ccc(O)cc1
